Source: patent US8933230B2, “Phosphorus-containing group-substituted quinoline, its preparation process, medical composition containing the compounds and application” (priority 2011, dated 2015)

Assays:
Experiment in all cases: KinomeScan kinase panel
Format in all cases: binding
[1] = target: T1, ABL1(H396P)-nonphosphorylated (Homo sapiens, UniProt P00519, H396P)
T1 construct: purchased DiscoveRx Corporation (KinomeScan)
Procedure, shortened: (§1)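 At 1000 nM, inhibition by the compound was measured kinase by kinase in the KinomeScan 442-member panel.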

[2] = target: T2, ABL1(M351T)-phosphorylated (Homo sapiens, UniProt P00519, M351T)
T2 construct: purchased DiscoveRx Corporation (KinomeScan)
Procedure, shortened: as §1

[3] = target: T3, ACVR1 (Homo sapiens, UniProt Q04771)
T3 construct: purchased DiscoveRx Corporation (KinomeScan)
Procedure, shortened: as §1

[4] = target: T4, AKT3 (Homo sapiens, UniProt Q9Y243)
T4 construct: purchased DiscoveRx Corporation (KinomeScan)
Procedure, shortened: as §1

[5] = target: T5, AXL (Homo sapiens, UniProt P30530)
T5 construct: purchased DiscoveRx Corporation (KinomeScan)
Procedure, shortened: as §1

[6] = target: T6, BLK (Homo sapiens, UniProt P51451)
T6 construct: purchased DiscoveRx Corporation (KinomeScan)
T6 sequence (P51451 whole entry): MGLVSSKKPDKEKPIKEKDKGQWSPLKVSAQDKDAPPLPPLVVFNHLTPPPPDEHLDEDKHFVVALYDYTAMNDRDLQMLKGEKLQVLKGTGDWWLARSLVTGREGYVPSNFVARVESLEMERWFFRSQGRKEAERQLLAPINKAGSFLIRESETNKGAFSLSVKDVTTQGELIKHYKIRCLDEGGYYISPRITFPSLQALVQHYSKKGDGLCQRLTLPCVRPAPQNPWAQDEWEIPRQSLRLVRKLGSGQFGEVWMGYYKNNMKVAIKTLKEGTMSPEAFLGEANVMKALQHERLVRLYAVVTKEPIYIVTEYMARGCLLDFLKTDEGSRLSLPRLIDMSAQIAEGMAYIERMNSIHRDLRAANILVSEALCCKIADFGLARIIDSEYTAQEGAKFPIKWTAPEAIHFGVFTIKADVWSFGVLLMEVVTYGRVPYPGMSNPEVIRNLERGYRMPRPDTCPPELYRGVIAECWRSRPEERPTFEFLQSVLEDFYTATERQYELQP
Procedure, shortened: as §1

[7] = target: T7, CAMK1 (Homo sapiens, UniProt Q14012)
T7 construct: purchased DiscoveRx Corporation (KinomeScan)
T7 sequence (Q14012 whole entry): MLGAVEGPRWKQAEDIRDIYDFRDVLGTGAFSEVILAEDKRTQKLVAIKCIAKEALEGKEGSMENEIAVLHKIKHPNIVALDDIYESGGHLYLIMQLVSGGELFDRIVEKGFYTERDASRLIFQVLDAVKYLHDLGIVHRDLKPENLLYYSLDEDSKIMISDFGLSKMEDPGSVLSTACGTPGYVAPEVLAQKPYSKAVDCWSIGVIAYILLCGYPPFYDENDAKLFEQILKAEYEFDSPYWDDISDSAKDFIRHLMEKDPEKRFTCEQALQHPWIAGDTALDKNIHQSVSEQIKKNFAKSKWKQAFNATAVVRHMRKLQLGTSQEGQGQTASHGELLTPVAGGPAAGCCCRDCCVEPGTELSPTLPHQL
Procedure, shortened: as §1

[8] = target: T8, CAMK2D (Homo sapiens, UniProt Q13557)
T8 construct: purchased DiscoveRx Corporation (KinomeScan)
T8 sequence (Q13557 whole entry): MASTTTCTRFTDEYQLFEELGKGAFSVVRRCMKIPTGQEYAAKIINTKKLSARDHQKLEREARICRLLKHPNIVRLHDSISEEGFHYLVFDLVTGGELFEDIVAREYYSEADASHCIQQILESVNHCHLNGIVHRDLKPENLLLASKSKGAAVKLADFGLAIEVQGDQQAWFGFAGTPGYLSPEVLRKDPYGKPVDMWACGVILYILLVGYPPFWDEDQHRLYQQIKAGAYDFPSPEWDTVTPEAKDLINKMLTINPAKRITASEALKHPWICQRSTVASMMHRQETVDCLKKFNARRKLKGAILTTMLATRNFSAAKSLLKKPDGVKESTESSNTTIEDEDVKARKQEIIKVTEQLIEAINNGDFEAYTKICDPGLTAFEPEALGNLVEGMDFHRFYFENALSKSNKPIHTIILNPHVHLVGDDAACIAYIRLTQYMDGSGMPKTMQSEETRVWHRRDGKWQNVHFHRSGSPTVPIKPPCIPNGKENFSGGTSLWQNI
Procedure, shortened: as §1

[9] = target: T9, DAPK3 (Homo sapiens, UniProt O43293)
T9 construct: purchased DiscoveRx Corporation (KinomeScan)
Procedure, shortened: as §1

[10] = target: T10, DRAK1 (Homo sapiens, UniProt Q9UEE5)
T10 construct: purchased DiscoveRx Corporation (KinomeScan)
Procedure, shortened: as §1

[11] = target: T11, DYRK1B (Homo sapiens, UniProt Q9Y463)
T11 construct: purchased DiscoveRx Corporation (KinomeScan)
Procedure, shortened: as §1

[12] = target: T12, EGFR(L747-S752del,P753S) (Homo sapiens, UniProt P00533, DEL747-752/P753S)
T12 construct: purchased DiscoveRx Corporation (KinomeScan)
Procedure, shortened: as §1

[13] = target: T13, EGFR(L858R,T790M) (Homo sapiens, UniProt P00533, L858R/T790M)
T13 construct: purchased DiscoveRx Corporation (KinomeScan)
Procedure, shortened: as §1

[14] = target: T14, EPHA3 (Homo sapiens, UniProt P29320)
T14 construct: purchased DiscoveRx Corporation (KinomeScan)
T14 sequence (P29320 21-983): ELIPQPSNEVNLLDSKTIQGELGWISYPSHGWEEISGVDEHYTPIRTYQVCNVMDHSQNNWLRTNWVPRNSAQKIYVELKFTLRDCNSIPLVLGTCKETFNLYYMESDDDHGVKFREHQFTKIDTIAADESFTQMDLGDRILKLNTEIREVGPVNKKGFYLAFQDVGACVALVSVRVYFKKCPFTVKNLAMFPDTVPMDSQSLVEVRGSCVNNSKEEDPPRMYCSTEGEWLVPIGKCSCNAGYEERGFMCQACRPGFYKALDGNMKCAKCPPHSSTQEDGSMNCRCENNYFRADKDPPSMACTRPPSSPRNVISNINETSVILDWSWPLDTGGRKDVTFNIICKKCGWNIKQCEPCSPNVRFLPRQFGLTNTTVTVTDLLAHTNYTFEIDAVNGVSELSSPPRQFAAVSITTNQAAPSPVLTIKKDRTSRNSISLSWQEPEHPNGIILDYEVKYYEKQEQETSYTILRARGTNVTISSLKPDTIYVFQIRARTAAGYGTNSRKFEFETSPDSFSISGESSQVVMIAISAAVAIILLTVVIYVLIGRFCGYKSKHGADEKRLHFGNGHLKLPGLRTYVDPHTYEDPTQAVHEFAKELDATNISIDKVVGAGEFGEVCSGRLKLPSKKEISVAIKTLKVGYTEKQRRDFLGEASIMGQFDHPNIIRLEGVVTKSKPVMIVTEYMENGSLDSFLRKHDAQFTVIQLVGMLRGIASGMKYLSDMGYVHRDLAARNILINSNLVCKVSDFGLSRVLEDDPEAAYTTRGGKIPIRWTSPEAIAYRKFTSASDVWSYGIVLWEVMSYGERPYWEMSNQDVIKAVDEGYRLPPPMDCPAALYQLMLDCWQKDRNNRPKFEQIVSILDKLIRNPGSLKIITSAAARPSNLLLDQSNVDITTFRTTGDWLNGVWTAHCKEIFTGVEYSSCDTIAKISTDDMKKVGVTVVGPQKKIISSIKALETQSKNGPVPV
Procedure, shortened: as §1

[15] = target: T15, FLT3(R834Q) (Homo sapiens, UniProt P36888, R834Q)
T15 construct: purchased DiscoveRx Corporation (KinomeScan)
Procedure, shortened: as §1

[16] = target: T16, FYN (Homo sapiens, UniProt P06241)
T16 construct: purchased DiscoveRx Corporation (KinomeScan)
Procedure, shortened: as §1

[17] = target: T17, GRK4 (Homo sapiens, UniProt P32298)
T17 construct: purchased DiscoveRx Corporation (KinomeScan)
T17 sequence (P32298 whole entry): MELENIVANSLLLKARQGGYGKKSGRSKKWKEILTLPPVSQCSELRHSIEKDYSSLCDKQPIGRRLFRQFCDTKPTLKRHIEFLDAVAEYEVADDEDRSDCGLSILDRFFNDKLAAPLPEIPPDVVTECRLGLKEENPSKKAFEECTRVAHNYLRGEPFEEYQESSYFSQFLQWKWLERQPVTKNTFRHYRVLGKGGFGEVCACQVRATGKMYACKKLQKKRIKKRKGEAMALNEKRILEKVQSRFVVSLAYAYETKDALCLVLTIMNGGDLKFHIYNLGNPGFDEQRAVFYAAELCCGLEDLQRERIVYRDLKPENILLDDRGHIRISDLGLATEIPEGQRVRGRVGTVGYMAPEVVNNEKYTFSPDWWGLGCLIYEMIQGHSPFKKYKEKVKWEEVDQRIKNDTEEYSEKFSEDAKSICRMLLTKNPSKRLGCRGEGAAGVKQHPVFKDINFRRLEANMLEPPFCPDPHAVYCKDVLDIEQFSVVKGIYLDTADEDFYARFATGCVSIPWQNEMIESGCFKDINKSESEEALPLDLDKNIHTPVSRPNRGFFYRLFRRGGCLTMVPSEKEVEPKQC
Procedure, shortened: as §1

[18] = target: T18, HUNK (Homo sapiens, UniProt P57058)
T18 construct: purchased DiscoveRx Corporation (KinomeScan)
Procedure, shortened: as §1

[19] = target: T19, INSRR (Homo sapiens, UniProt P14616)
T19 construct: purchased DiscoveRx Corporation (KinomeScan)
Procedure, shortened: as §1

[20] = target: T20, LOK (Homo sapiens, UniProt O94804)
T20 construct: purchased DiscoveRx Corporation (KinomeScan)
T20 sequence (O94804 whole entry): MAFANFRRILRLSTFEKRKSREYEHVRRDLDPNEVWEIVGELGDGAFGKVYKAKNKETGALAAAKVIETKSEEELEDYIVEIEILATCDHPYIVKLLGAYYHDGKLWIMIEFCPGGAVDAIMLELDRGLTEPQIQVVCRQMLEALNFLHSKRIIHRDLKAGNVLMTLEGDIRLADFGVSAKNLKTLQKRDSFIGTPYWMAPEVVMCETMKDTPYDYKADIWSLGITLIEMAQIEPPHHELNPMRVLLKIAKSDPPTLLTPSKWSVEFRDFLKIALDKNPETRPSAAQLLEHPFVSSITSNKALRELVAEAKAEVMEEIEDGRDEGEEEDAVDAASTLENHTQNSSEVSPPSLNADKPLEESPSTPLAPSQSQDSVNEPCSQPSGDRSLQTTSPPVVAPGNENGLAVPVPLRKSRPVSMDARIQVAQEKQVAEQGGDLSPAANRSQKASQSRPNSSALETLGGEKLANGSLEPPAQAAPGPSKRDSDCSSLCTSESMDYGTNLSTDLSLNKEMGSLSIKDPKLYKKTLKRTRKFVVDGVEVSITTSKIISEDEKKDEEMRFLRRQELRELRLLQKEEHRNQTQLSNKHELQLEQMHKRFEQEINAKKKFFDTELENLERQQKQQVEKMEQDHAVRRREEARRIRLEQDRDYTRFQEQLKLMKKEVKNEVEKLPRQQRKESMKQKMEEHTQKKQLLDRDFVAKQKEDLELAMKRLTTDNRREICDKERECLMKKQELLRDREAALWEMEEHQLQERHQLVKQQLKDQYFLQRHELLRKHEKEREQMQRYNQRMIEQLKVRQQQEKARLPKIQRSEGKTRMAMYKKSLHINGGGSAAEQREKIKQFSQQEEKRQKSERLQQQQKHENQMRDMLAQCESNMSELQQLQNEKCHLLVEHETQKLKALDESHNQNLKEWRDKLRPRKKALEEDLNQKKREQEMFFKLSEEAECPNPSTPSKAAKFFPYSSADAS
Procedure, shortened: as §1

[21] = target: T21, MAP3K1 (Homo sapiens, UniProt Q13233)
T21 construct: purchased DiscoveRx Corporation (KinomeScan)
Procedure, shortened: as §1

[22] = target: T22, MLCK (Homo sapiens, UniProt Q32MK0)
T22 construct: purchased DiscoveRx Corporation (KinomeScan)
Procedure, shortened: as §1

[23] = target: T23, MYO3A (Homo sapiens, UniProt Q8NEV4)
T23 construct: purchased DiscoveRx Corporation (KinomeScan)
Procedure, shortened: as §1

[24] = target: T24, NEK4 (Homo sapiens, UniProt P51957)
T24 construct: purchased DiscoveRx Corporation (KinomeScan panel)
Procedure, shortened: as §1

[25] = target: T25, P38-delta (Homo sapiens, UniProt O15264)
T25 construct: purchased DiscoveRx Corporation (KinomeScan panel)
Procedure, shortened: as §1

[26] = target: T26, PAKC-alpha (Homo sapiens, UniProt P17612)
T26 construct: purchased DiscoveRx Corporation (KinomeScan)
Procedure, shortened: as §1

[27] = target: T27, PCTK3 (Homo sapiens, UniProt Q07002)
T27 construct: purchased DiscoveRx Corporation (KinomeScan panel)
Procedure, shortened: as §1

[28] = target: T28, PIK3CA (Homo sapiens, UniProt P42336)
T28 construct: purchased DiscoveRx Corporation (KinomeScan)
Procedure, shortened: as §1

[29] = target: T29, PIM1 (Homo sapiens, UniProt P11309)
T29 construct: purchased DiscoveRx Corporation (KinomeScan)
Procedure, shortened: as §1

[30] = target: T30, PLK2 (Homo sapiens, UniProt Q9NYY3)
T30 construct: purchased DiscoveRx Corporation (KinomeScan)
T30 sequence (Q9NYY3 whole entry): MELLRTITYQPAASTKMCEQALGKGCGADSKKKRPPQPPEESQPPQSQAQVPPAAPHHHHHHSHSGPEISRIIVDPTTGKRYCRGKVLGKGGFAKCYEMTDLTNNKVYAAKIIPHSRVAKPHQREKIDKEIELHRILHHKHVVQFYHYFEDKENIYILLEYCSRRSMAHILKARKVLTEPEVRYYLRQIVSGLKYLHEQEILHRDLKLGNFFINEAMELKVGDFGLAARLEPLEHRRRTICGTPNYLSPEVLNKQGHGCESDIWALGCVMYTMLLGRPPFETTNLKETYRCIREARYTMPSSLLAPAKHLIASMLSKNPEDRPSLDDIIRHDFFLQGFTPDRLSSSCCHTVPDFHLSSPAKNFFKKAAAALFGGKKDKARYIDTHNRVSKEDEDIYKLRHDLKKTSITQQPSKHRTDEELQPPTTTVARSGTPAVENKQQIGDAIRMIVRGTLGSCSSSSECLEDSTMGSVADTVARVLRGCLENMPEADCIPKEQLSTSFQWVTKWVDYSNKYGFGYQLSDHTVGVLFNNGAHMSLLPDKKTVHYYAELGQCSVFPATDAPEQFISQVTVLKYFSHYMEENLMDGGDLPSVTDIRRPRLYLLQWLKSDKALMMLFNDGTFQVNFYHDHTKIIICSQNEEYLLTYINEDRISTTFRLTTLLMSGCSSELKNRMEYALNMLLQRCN
Procedure, shortened: as §1

[31] = target: T31, PRKCI (Homo sapiens, UniProt P41743)
T31 construct: purchased DiscoveRx Corporation (KinomeScan)
Procedure, shortened: as §1

[32] = target: T32, RET (M918T) (Homo sapiens, UniProt P07949, M918T)
T32 construct: purchased DiscoveRx Corporation
Procedure, shortened: as §1

[33] = target: T33, RSK1(Kin.Dom.1-N-terminal) (Homo sapiens, UniProt Q15418)
T33 construct: Kin.Dom.1; purchased DiscoveRx Corporation
T33 sequence (Q15418 62-321 limits assumed): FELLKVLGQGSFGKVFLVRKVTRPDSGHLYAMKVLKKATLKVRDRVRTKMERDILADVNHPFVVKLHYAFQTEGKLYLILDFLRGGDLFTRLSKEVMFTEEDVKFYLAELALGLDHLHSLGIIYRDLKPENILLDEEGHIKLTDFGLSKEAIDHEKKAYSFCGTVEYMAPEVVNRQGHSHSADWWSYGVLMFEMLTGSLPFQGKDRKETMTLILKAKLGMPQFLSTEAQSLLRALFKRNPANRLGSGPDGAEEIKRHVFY
Procedure, shortened: as §1

[34] = target: T34, RSK4(Kin.Dom.2-C-terminal) (Homo sapiens, UniProt Q9UK32)
T34 construct: Kin.Dom.2; purchased DiscoveRx Corporation (KinomeScan)
Procedure, shortened: as §1

[35] = system: TRPM6
Procedure, shortened: as §1

CCOP(=O)(CN1CCC(COc2cc3nccc(Oc4ccc(NC(=O)C5(C(=O)Nc6ccc(F)cc6)CC5)cc4F)c3cc2OC)CC1)OCC [Example 10, N1-[4-[[7-[[1-(diethoxyphosphorylmethyl)-4-piperidinyl]methoxyl]-6-methoxyl-4-quinolyl]oxyl]-3-fluorophenyl]-N1′-(4-fluorophenyl)cyclopropane-1,1-dicarboxamide]
% Ctrl@1000 nM [1]: 1.9 % Ctrl | % Ctrl@1000 nM [2]: 42 % Ctrl | % Ctrl@1000 nM [3]: 100 % Ctrl | % Ctrl@1000 nM [4]: 100 % Ctrl | % Ctrl@1000 nM [5]: 8 % Ctrl | % Ctrl@1000 nM [6]: 0.5 % Ctrl | % Ctrl@1000 nM [7]: 78 % Ctrl | % Ctrl@1000 nM [8]: 94 % Ctrl | % Ctrl@1000 nM [9]: 100 % Ctrl | % Ctrl@1000 nM [10]: 100 % Ctrl | % Ctrl@1000 nM [11]: 86 % Ctrl | % Ctrl@1000 nM [12]: 67 % Ctrl | % Ctrl@1000 nM [13]: 100 % Ctrl | % Ctrl@1000 nM [14]: 6 % Ctrl | % Ctrl@1000 nM [15]: 16 % Ctrl | % Ctrl@1000 nM [16]: 48 % Ctrl | % Ctrl@1000 nM [17]: 78 % Ctrl | % Ctrl@1000 nM [18]: 100 % Ctrl | % Ctrl@1000 nM [19]: 65 % Ctrl | % Ctrl@1000 nM [20]: 0 % Ctrl | % Ctrl@1000 nM [21]: 80 % Ctrl | % Ctrl@1000 nM [22]: 100 % Ctrl | % Ctrl@1000 nM [23]: 93 % Ctrl | % Ctrl@1000 nM [24]: 100 % Ctrl | % Ctrl@1000 nM [25]: 53 % Ctrl | % Ctrl@1000 nM [26]: 100 % Ctrl | % Ctrl@1000 nM [27]: 100 % Ctrl | % Ctrl@1000 nM [28]: 100 % Ctrl | % Ctrl@1000 nM [29]: 96 % Ctrl | % Ctrl@1000 nM [30]: 83 % Ctrl | % Ctrl@1000 nM [31]: 100 % Ctrl | % Ctrl@1000 nM [32]: 0.05 % Ctrl | % Ctrl@1000 nM [33]: 59 % Ctrl | % Ctrl@1000 nM [34]: 91 % Ctrl | % Ctrl@1000 nM [35]: 86 % Ctrl
